In US20220089575A1, “FARNESOID X RECEPTOR AGONISTS AND USES THEREOF” (Metacrine, Inc., priority 2017, published 2022):

target: T1, hFXR (Homo sapiens, UniProt Q96RI1); assay: In Vitro FXR Assay (TK): TK-ECRE-luc reporter in transfected CV-1 cells; format: cell-based; settings: 18 hrs, luminescence, maximum efficacy of <25% of the Fexarmine control classified as '+'
T1 construct: expressed in transfected cells; host or cells: CV-1 cells
T1 sequence (Q96RI1 1-486): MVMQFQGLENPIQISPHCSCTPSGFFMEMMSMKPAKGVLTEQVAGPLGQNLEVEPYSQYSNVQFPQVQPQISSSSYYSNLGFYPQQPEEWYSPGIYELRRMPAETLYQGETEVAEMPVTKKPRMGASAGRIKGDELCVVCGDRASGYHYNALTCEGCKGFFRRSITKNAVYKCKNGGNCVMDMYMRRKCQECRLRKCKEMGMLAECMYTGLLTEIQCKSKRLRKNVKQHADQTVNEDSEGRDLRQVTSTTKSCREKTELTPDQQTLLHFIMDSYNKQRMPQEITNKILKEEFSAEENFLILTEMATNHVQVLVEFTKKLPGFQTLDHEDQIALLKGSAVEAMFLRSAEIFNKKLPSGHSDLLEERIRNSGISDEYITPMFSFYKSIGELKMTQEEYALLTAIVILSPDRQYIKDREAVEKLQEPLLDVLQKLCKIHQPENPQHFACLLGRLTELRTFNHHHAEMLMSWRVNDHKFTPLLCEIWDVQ
T1 sequence (P19793 1-462 partner): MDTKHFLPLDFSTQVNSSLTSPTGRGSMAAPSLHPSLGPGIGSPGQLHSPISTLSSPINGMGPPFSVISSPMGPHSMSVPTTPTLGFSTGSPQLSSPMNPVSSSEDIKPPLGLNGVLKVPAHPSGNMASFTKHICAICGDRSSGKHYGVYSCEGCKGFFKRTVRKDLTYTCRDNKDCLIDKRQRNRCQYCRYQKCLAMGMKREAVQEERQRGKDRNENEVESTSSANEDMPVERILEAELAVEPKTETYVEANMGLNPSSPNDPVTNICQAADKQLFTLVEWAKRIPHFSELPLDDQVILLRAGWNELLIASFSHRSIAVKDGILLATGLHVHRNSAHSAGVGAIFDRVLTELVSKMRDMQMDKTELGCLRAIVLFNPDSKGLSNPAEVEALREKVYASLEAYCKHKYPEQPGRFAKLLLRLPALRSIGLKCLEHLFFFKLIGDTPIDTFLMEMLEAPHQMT
In short: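 Transiently transfected monkey CV-1 cells (hFXR, hRXR, TK-ECRE-luciferase, YFP control plasmid), held in stripped-serum DMEM, received compound dilutions from DMSO for 18 h at 37 °C. Activity was taken from luminescence of the cell lysates.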

EC50, ≤ 0.25 µM:
COc1ccc([C@H]2CC[C@H](CN(c3cc(-c4cnc(C5CC5)s4)ccn3)C(=O)[C@H]3CC[C@H](OC(=O)NCCO)CC3)CC2)cc1C [Compound 6.02, trans-4-((4-(2-Cyclopropylthiazol-5-yl)pyridin-2-yl)((trans-4-(4-methoxy-3-methylphenyl)cyclohexyl)methyl)carbamoyl)cyclohexyl (2-hydroxyethyl) carbamate]
COc1ccc([C@H]2CC[C@H](CN(c3cc(-c4cnc(C(C)C)s4)ccn3)C(=O)[C@H]3CC[C@H](OC(=O)NCCO)CC3)CC2)cc1C [Compound 6.03, trans-4-((4-(2-Isopropylthiazol-5-yl)pyridin-2-yl)((trans-4-(4-methoxy-3-methylphenyl)cyclohexyl)methyl)carbamoyl)cyclohexyl (2-hydroxyethyl) carbamate]
COc1ccc([C@H]2CC[C@H](CN(c3cccc(-c4cnc(C(C)C)s4)c3)C(=O)[C@H]3CC[C@H](OC(=O)NCCO)CC3)CC2)nc1C [Compound 6.04, trans-4-((3-(2-Isopropylthiazol-5-yl)phenyl)((trans-4-(5-methoxy-6-methylpyridin-2-yl)cyclohexyl)methyl)carbamoyl)cyclohexyl (2-hydroxyethyl)carbamate]
COc1ccc([C@H]2CC[C@H](CN(c3cccc(-c4cnc(C(C)C)s4)c3)C(=O)[C@H]3CC[C@H](OC(=O)NCCCO)CC3)CC2)nc1C [Compound 6.05]
COc1ccc([C@H]2CC[C@H](CN(c3cccc(-c4cnc(C5CC5)s4)c3)C(=O)[C@H]3CC[C@H](OC(=O)NCCO)CC3)CC2)nc1C#N [Compound 6.06, trans-4-(((trans-4-(6-Cyano-5-methoxypyridin-2-yl)cyclohexyl)methyl) (3-(2-cyclopropylthiazol-5-yl)phenyl)carbamoyl)cyclohexyl (2-hydroxyethyl)carbamate]
COc1ccc([C@H]2CC[C@H](CN(c3cccc(-c4cnc(C5CC5)s4)c3)C(=O)[C@H]3CC[C@H](OC(=O)NCCO)CC3)CC2)nc1C [Compound 6.07, trans-4-((3-(2-Cyclopropylthiazol-5-yl)phenyl)((trans-4-(5-methoxy-6-methylpyridin-2-yl)cyclohexyl)methyl)carbamoyl)cyclohexyl (2-hydroxyethyl)carbamate]
CN(C)c1ccc([C@H]2CC[C@H](CN(c3cccc(-c4cnn(C5CC5)c4)c3)C(=O)[C@H]3CC[C@H](OC(=O)NCCO)CC3)CC2)cn1 [Compound 6.08, trans-4-((3-(1-Cyclopropyl-1H-pyrazol-4-yl)phenyl)((trans-4-(6-(dimethylamino)pyridin-3-yl)cyclohexyl)methyl)carbamoyl)cyclohexyl (2-hydroxyethyl)carbamate]
COc1ccc([C@H]2CC[C@H](CN(c3cccc(-c4cnn(C(C)C)c4)c3)C(=O)[C@H]3CC[C@H](OC(=O)NCCO)CC3)CC2)cc1C [Compound 6.09, trans-4-((3-(1-Isopropyl-1H-pyrazol-4-yl)phenyl)((trans-4-(4-methoxy-3-methylphenyl)cyclohexyl)methyl)carbamoyl)cyclohexyl (2-hydroxyethyl) carbamate]
COCCNC(=O)O[C@H]1CC[C@H](C(=O)N(C[C@H]2CC[C@H](c3ccc(OC)c(C)c3)CC2)c2cccc(-c3cnn(C4CC4)c3)c2)CC1 [Compound 6.10, trans-4-((3-(1-Cyclopropyl-1H-pyrazol-4-yl)phenyl)((trans-4-(4-methoxy-3-methylphenyl)cyclohexyl)methyl)carbamoyl)cyclohexyl (2-methoxyethyl) carbamate]
COc1ccc([C@H]2CC[C@H](CN(c3cccc(-c4cnn(C5CC5)c4)c3)C(=O)[C@H]3CC[C@H](OC(=O)NC(CO)CO)CC3)CC2)cc1C [Compound 6.11, trans-4-((3-(1-Cyclopropyl-1H-pyrazol-4-yl)phenyl)((trans-4-(4-methoxy-3-methylphenyl)cyclohexyl)methyl)carbamoyl)cyclohexyl (1,3-dihydroxypropan-2-yl)carbamate]
COc1ccc([C@H]2CC[C@H](CN(c3cccc(-c4cnn(C5CC5)c4)c3)C(=O)[C@H]3CC[C@H](OC(=O)NC[C@H](O)CO)CC3)CC2)cc1C [Compound 6.12, trans-4-((3-(1-Cyclopropyl-1H-pyrazol-4-yl)phenyl)((trans-4-(4-methoxy-3-methylphenyl)cyclohexyl)methyl)carbamoyl)cyclohexyl ((S)-2,3-dihydroxypropyl)carbamate]
COc1ccc([C@H]2CC[C@H](CN(c3cccc(-c4cnn(C5CC5)c4)c3)C(=O)[C@H]3CC[C@H](OC(=O)NC[C@@H](O)CO)CC3)CC2)cc1C [Compound 6.13, trans-4-((3-(1-Cyclopropyl-1H-pyrazol-4-yl)phenyl)((trans-4-(4-methoxy-3-methylphenyl)cyclohexyl)methyl)carbamoyl)cyclohexyl ((R)-2,3-dihydroxypropyl)carbamate]
COc1ccc([C@H]2CC[C@H](CN(c3cccc(-c4cnn(C(C)C)c4)c3)C(=O)[C@H]3CC[C@H](OC(=O)NCCCO)CC3)CC2)cc1C [Compound 6.14, trans-4-((3-(1-Isopropyl-1H-pyrazol-4-yl)phenyl)((trans-4-(4-methoxy-3-methylphenyl)cyclohexyl)methyl)carbamoyl)cyclohexyl (3-hydroxypropyl)carbamate]
COc1ccc([C@H]2CC[C@H](CN(c3cccc(-c4cnn(C(C)C)c4)c3)C(=O)[C@H]3CC[C@H](OC(=O)NCCO)CC3)CC2)nc1C [Compound 6.15, trans-4-((3-(1-Isopropyl-1H-pyrazol-4-yl)phenyl)((trans-4-(5-methoxy-6-methylpyridin-2-yl)cyclohexyl)methyl)carbamoyl)cyclohexyl (2-hydroxyethyl)carbamate]
COc1ccc([C@H]2CC[C@H](CN(c3cccc(-c4cnn(C(C)C)c4)c3)C(=O)[C@H]3CC[C@H](OC(=O)NCCCO)CC3)CC2)nc1C [Compound 6.16, trans-4-((3-(1-Isopropyl-1H-pyrazol-4-yl)phenyl)((trans-4-(5-methoxy-6-methylpyridin-2-yl)cyclohexyl)methyl)carbamoyl)cyclohexyl (3-hydroxypropyl)carbamate]
COc1ccc([C@H]2CC[C@H](CN(c3cc(-c4cnn(C(C)C)c4)ccn3)C(=O)[C@H]3CC[C@H](OC(=O)NCCO)CC3)CC2)cc1C [Compound 6.17, trans-4-((4-(1-Isopropyl-1H-pyrazol-4-yl)pyridin-2-yl)((trans-4-(4-methoxy-3-methylphenyl)cyclohexyl)methyl)carbamoyl)cyclohexyl (2-hydroxyethyl)carbamate]
COc1ccc([C@H]2CC[C@H](CN(c3cccc(-c4cnn(C5CC5)c4)c3)C(=O)[C@H]3CC[C@H](OC(=O)NC4CN(C)C4)CC3)CC2)cc1C [Compound 6.18, trans-4-((3-(1-Cyclopropyl-1H-pyrazol-4-yl)phenyl)((trans-4-(4-methoxy-3-methylphenyl)cyclohexyl)methyl)carbamoyl)cyclohexyl (1-methylazetidin-3-yl)carbamate]
COc1ccc([C@H]2CC[C@H](CN(c3cccc(-c4cnn(C5CC5)c4)c3)C(=O)[C@H]3CC[C@H](OC(=O)NCCO)CC3)CC2)cc1C#N [Compound 6.19, trans-4-(((trans-4-(3-Cyano-4-methoxyphenyl)cyclohexyl)methyl)(3-(1-cyclopropyl-1H-pyrazol-4-yl)phenyl)carbamoyl)cyclohexyl (2-hydroxyethyl)carbamate]
COc1ccc([C@H]2CC[C@H](CN(c3cccc(-c4cnn(C(C)C)c4)c3)C(=O)[C@H]3CC[C@H](OC(=O)NCCO)CC3)CC2)cc1C#N [Compound 6.20, trans-4-(((trans-4-(3-Cyano-4-methoxyphenyl)cyclohexyl)methyl)(3-(1-isopropyl-1H-pyrazol-4-yl)phenyl)carbamoyl)cyclohexyl (2-hydroxyethyl)carbamate]
COc1ccc([C@H]2CC[C@H](CN(c3cc(-c4cnn(C5CC5)c4)ccn3)C(=O)[C@H]3CC[C@H](OC(=O)NCCO)CC3)CC2)cc1C#N [Compound 6.21, trans-4-(((trans-4-(3-Cyano-4-methoxyphenyl)cyclohexyl)methyl)(4-(1-cyclopropyl-1H-pyrazol-4-yl)pyridin-2-yl)carbamoyl)cyclohexyl (2-hydroxyethyl)carbamate]
